{"source": "patent US20230189810A1", "about": "“AQUEOUS COMPOSITION OF DITHI[…]” (priority 2020, published 2023)", "origin": "cited, not measured here", "settings": "water, 20° C."}
{"substance": "mancozeb", "values": [{"measurement": "solubility", "value": "about 6.2 mg per liter"}]}
